Experimental data reported in patent US20230293519A1, “INTEGRIN INHIBITORS AND USES THEREOF IN COMBINATION WITH OTHER AGENTS” (Pliant Therapeutics, Inc., priority 2021, published 2023).
Entries after “also recorded” stand apart in the source; their conditions may differ.

Key:
lung Col1a1 expression = assay: Precision cut lung slices of mice under chronic bleomycin exposure (vs pirfenidone and nintedanib); format: cell-based, mouse; settings: slices cultured 7 days; nintedanib and pirfenidone at 10x therapeutic concentrations
Experimental: Mice (C57BL/6) were administered 3 U/kg of bleomycin (Teva Pharmaceuticals; North Wales, PA) on Day 0 and 1 U/kg of bleomycin on days 14, 28, 42 and 56 via oropharyngeal aspiration while under anesthesia. At day 70, 14 days following the final bleomycin insult, precision cut lung slices were obtained. Following euthanization, 2% low gelling temp agarose was injected into the mouse lungs via the trachea. […] The lobes were then subjected to precision slicing to obtain samples for culture using a microtome (Compresstome VF-300-0Z, Precisionary; Greenville, NC). Individual slices were distributed in a multiwell culture plate and cultured for 7 days under control (DMSO) and test compound conditions. The viability of the slices over the course of culturing was confirmed by WST-1 assay of mitochondrial activity.
During the culture period, slices in the control group were treated with DMSO and slices in the test group were treated with a DMSO solution of one of: compound 5; nintedanib; pirfenidone; a combination of nintedanib and compound 5; a combination of pirfenidone and compound 5; or the small molecule ALK5 inhibitor. Compound 5 was […] effective to equal or exceed its respective IC50 values at αvβ6 and αvβ1. The small molecule ALK5 inhibitor was analyzed at 10x its reported IC50 value. Nintendanib and pirfenidone were analyzed at concentrations 10x their reported therapeutic concentrations.

pSmad2/Smad2 = assay: Alveolar pSmad2/Smad2 in BAL, prior study (80 mg and 160 mg QD); format: in vivo; settings: p<0.0001
From the text: FIG. 12 through FIG. 36 illustrate various results from the clinical trial. […] BAL - bronchoalveolar lavage; pSmad2/Smad2 - ratio of phosphorylated Smad2 to total Smad2; QD - once daily.

[1] = system: IPF-derived human lung fibroblasts; assay: LAP adhesion assay (xCELLigence cell index), lung fibroblasts; format: cell-based; settings: IPF-derived lung fibroblasts (express αvβ1)
Experimental: Two latency associated peptide (LAP) adhesion binding assays were devised using primary human lung cells, including normal (healthy) human bronchial epithelial cells and human lung fibroblasts (healthy and IPF).
Human lung fibroblasts derived from normal and IPF lung tissue are known to express αvβ1 integrin. […] In the assay, the IPF-derived human lung fibroblasts were separately incubated with: the αvβ1-selective small molecule inhibitor; the selective antibody αvβ6 inhibitor, 3G9; and compound 5.

[2] = Phase 2a trial in IPF: pharmacokinetics; format: in vivo, human; settings: IPF participants
From the text: Based on sparse sampling, overall Compound 5 pharmacokinetics and % unbound in IPF were consistent with that of previous studies. […] Overall % unbound was ~0.3 to 0.5%. Full PK curve will be predicted using population PK model to project AUC0_24 and Cmax.

[3] = system: fibrosis-related gene expression in explanted human lung tissue from patients with idiopathic pulmonary fibrosis; assay: nCounter Fibrosis Panel gene expression in precision cut lung slices from IPF explants; format: cell-based; settings: IPF PCLS, 7 days, vs DMSO
From the text: Fibrosis-related gene expression in explanted human lung tissue from patients with idiopathic pulmonary fibrosis was examined in order to determine what impact combining Compound 5 treatment with standard-of-care drugs nintedanib or pirfenidone, has on the expression of such genes.
Samples used for this analysis are a subset (n = 4 of 7) of the lungs previously reported on in Decaris et al., Respir Res (2021) 22:265 (FIGS. 6 A and B). Briefly, tissue samples from patients with IPF were acquired at the time of lung transplantation. Precision cut lung slices were generated from the explants and cultured for 7 days in the presence of inhibitors (Compound 5, nintedanib, pirfenidone) at clinically relevant concentrations or vehicle (DMSO). Treated slices were lysed in mRNA-compatible buffer for gene expression analysis. For this study, the lysate from n = 6 slices per treatment per lung were pooled for analysis using the nCounter Fibrosis Panel (Nanostring) on the nCounter Max analyzer (Nanostring). This commercially available panel of 770 genes includes genes related to initial tissue damage response, chronic inflammation, proliferation of pro-fibrotic cells, and tissue modification leading to fibrotic disease. Technical quality control and normalization of raw Nanostring mRNA count data was performed using an R framework developed by Bhattacharya et al. (Bhattacharya A. et al., Brief Bioinform. 2021 May 20;22(3):bbaa163). The R packages limma (see URL www.bioconductor.org/packages/release/bioc/html/limma.html) and voom (Law, C.W. et al., Genome Biol. 2014 Feb 3;15(2):R29) were used to detect differentially expressed genes. Benjamini-Hochberg False Discovery Rate (FDR = 5%) was used to adjust p-values for multiple comparisons.

In the case of `COCCN(CCCCc1ccc2c(n1)NCCC2)CC[C@H](Nc1ncnc2ccccc12)C(=O)O` [Compound 5, (S)-4-((2-methoxyethyl)(4-(5,6,7,8-tetrahydro-1,8-naphthyridin-2-yl)butyl)amino)-2-(quinazolin-4-ylamino)butanoic acid], the “lung Col1a1 expression vs DMSO control” value (lung Col1a1 expression) is reported as “substantial, statistically significant”, the “percent change of alveolar pSmad2/Smad2 from baseline at 24 hours vs placebo” value (pSmad2/Smad2) is reported as “statistically significant” and the “inhibition of cell adhesion to LAP” value [1] is reported as “substantially inhibited”. The “dose proportionality of plasma concentrations” value ([2]; 40, 80, 160 mg once daily) was “generally dose proportional increases; also recorded: increased approximately proportionally with dose”, the fraction unbound ([2]; human, in vivo) was 0.003 to 0.005 and the “% Reduction of APOC2 expression” value [3] was -1.20%. The “% Reduction of CDH2 expression” value [3] was 23.87%, the “% Reduction of COL1A1 expression” value [3] was 38.78% and the “% Reduction of COL4A2 expression” value [3] was 17.74%. The “% Reduction of COL5A3 expression” value [3] was 30.59%, the “% Reduction of FAP expression” value [3] was 37.30% and the “% Reduction of FCGR3A/B expression” value [3] was 28.54%. For the same compound, the “% Reduction of ITGAS expression” value [3] was 26.20%, the “% Reduction of ITGB3 expression” value [3] was -2.48% and the “% Reduction of LOX expression” value [3] was 39.38%. The “% Reduction of LOXL2 expression” value [3] was 15.32%, the “% Reduction of NID1 expression” value [3] was 19.25% and the “% Reduction of PDGFRB expression” value [3] was 37.29%. The “% Reduction of POSTN expression” value [3] was 48.61%, the “% Reduction of SERPINE1 expression” value [3] was 35.77% and the “% Reduction of SERPINH1 expression” value [3] was 22.68%. For the same compound, the “% Reduction of SPP1 expression” value [3] was -15.73%, the “% Reduction of TGFB1 expression” value [3] was 1.68% and the “% Reduction of THBS2 expression” value [3] was 31.47%. For the same compound, the “logFC of ALDH7A1 expression” value [3] was 0.57, the “logFC of APOA2 expression” value [3] was 0.6135 and the “logFC of CCL13 expression” value [3] was 0.9445. For the same compound, the “logFC of CD19 expression” value [3] was 0.5301, the “logFC of CIITA expression” value [3] was 0.5895 and the “logFC of COL1A2 expression” value [3] was -0.8062. For the same compound, the “logFC of COL3A1 expression” value [3] was -0.7449, the “logFC of COL5A1 expression” value [3] was -0.9282 and the “logFC of COL6A3 expression” value [3] was -0.8313. For the same compound, the “logFC of COL10A1 expression” value [3] was -2.782, the “logFC of CXCL2 expression” value [3] was 0.7069 and the “logFC of CXCR4 expression” value [3] was -0.7822. The “logFC of FAP expression” value [3] was -0.6735, the “logFC of FN1 expression” value [3] was -0.662 and the “logFC of FZD5 expression” value [3] was 0.4466. For the same compound, the “logFC of GPC4 expression” value [3] was 0.486, the “logFC of GREM1 expression” value [3] was -0.8269 and the “logFC of IFI6 expression” value [3] was 0.9391. The “logFC of IFI35 expression” value [3] was 0.4412, the “logFC of LOX expression” value [3] was -0.722 and the “logFC of LOXL1 expression” value [3] was -0.6279. For the same compound, the “logFC of LTA expression” value [3] was 0.4994, the “logFC of MARCO expression” value [3] was -0.9183 and the “logFC of MET expression” value [3] was 0.6707. The “logFC of MMP8 expression” value [3] was -0.8754, the “logFC of MMP11 expression” value [3] was -0.6749 and the “logFC of NOS1 expression” value [3] was 0.6684. The “logFC of OAS1 expression” value [3] was 0.6104, the “logFC of PDGFRB expression” value [3] was -0.6732 and the “logFC of PECAM1 expression” value [3] was -0.8251. For the same compound, the “logFC of PLPP4 expression” value [3] was -0.6364, the “logFC of POSTN expression” value [3] was -0.9604 and the “logFC of PTGER4 expression” value [3] was 0.439. For the same compound, the “logFC of SERPINE1 expression” value [3] was -0.6387, the “logFC of SMAD3 expression” value [3] was 0.4528 and the “logFC of TIMP1 expression” value [3] was -0.6101. The “logFC of TNF expression” value [3] was 0.4803, the “logFC of TTN expression” value [3] was 0.5832 and the “logFC of WWC1 expression” value [3] was 0.5885. For the same compound, the “logFC of XAF1 expression” value [3] was 0.4529.
